In brackets after ≈: the same amount, converted by molar mass.
How the values were obtained:
Assay in all cases: in vitro antibacterial evaluation, MIC by broth dilution
Format in all cases: cell-based
Enterococcus sp. = conditions: broth dilution, 18 hours at 35° C.
How it was run: (§1)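 Broth dilution per NCCLS M7-A2 in Mueller-Hinton II medium, inoculum 5×10^5 CFU/mL, antibiotic range 64-0.06 μg/mL. MIC taken as lowest concentration inhibiting growth; Gram-positive panel includes recent clinical isolates resistant to methicillin, penicillin and/or vancomycin.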

Escherichia coli = conditions: 18 hours at 35° C.
How it was run: as §1

Staphylococcus sp. = conditions: broth dilution, 18 hours at 35° C.
How it was run: as §1

Streptococcus sp. = conditions: broth dilution, 18 hours at 35° C.
How it was run: as §1

MIC Enterococcus avium (GC 4558) (Enterococcus sp.; Enterococcus avium (GC 4558)): 4 µg/mL (≈ 2.58 µM) | MIC Enterococcus faecalis (ATCC 29212) (Enterococcus sp.; Enterococcus faecalis (ATCC 29212)): 8 µg/mL (≈ 5.16 µM) | MIC Enterococcus faecalis (GC 2242) (Enterococcus sp.; Enterococcus faecalis (GC 2242)): 8 µg/mL (≈ 5.16 µM) | MIC Enterococcus faecalis (GC 2691) (Enterococcus sp.; Enterococcus faecalis (GC 2691)): 16 µg/mL (≈ 10.3 µM) | MIC Enterococcus faecalis (GC 3059) (Enterococcus sp.; Enterococcus faecalis (GC 3059)): 16 µg/mL (≈ 10.3 µM) | MIC Enterococcus faecalis (GC 4552) (Enterococcus sp.; Enterococcus faecalis (GC 4552)): 8 µg/mL (≈ 5.16 µM) | MIC Enterococcus faecalis (GC 4553) (Enterococcus sp.; Enterococcus faecalis (GC 4553)): 8 µg/mL (≈ 5.16 µM) | MIC Enterococcus faecalis (GC 4554) (Enterococcus sp.; Enterococcus faecalis (GC 4554)): 16 µg/mL (≈ 10.3 µM) | MIC Enterococcus faecalis (GC 6189) (Enterococcus sp.; Enterococcus faecalis (GC 6189)): 8 µg/mL (≈ 5.16 µM) | MIC Enterococcus faecium (GC 2243) (Enterococcus sp.; Enterococcus faecium (GC 2243)): 8 µg/mL (≈ 5.16 µM) | MIC Enterococcus faecium (GC 4556) (Enterococcus sp.; Enterococcus faecium (GC 4556)): 8 µg/mL (≈ 5.16 µM) | MIC Enterococcus faecium (GC 4557) (Enterococcus sp.; Enterococcus faecium (GC 4557)): 4 µg/mL (≈ 2.58 µM) | MIC Enterococcus faecalis (ATCC 29212) (Enterococcus sp.; strain ATCC 29212): 8 µg/mL (≈ 5.16 µM) | MIC Enterococcus faecalis (GC 2242) (Enterococcus sp.; strain GC 2242): 8 µg/mL (≈ 5.16 µM) | MIC Enterococcus faecium (GC 2243) (Enterococcus sp.; strain GC 2243): 8 µg/mL (≈ 5.16 µM) | MIC Enterococcus faecalis (GC 2691) (Enterococcus sp.; strain GC 2691): 16 µg/mL (≈ 10.3 µM) | MIC Enterococcus faecalis (GC 3059) (Enterococcus sp.; strain GC 3059): 16 µg/mL (≈ 10.3 µM) | MIC Enterococcus faecalis (GC 4552) (Enterococcus sp.; strain GC 4552): 8 µg/mL (≈ 5.16 µM) | MIC Enterococcus faecalis (GC 4553) (Enterococcus sp.; strain GC 4553): 8 µg/mL (≈ 5.16 µM) | MIC Enterococcus faecalis (GC 4554) (Enterococcus sp.; strain GC 4554): 16 µg/mL (≈ 10.3 µM) | MIC Enterococcus faecium (GC 4556) (Enterococcus sp.; strain GC 4556): 8 µg/mL (≈ 5.16 µM) | MIC Enterococcus faecium (GC 4557) (Enterococcus sp.; strain GC 4557): 4 µg/mL (≈ 2.58 µM) | MIC Enterococcus avium (GC 4558) (Enterococcus sp.; strain GC 4558): 4 µg/mL (≈ 2.58 µM) | MIC Enterococcus faecalis (GC 6189) (Enterococcus sp.; strain GC 6189): 8 µg/mL (≈ 5.16 µM) | MIC Escherichia coli (ATCC 25922) (Escherichia coli; strain ATCC 25922): 64 µg/mL (≈ 41.2 µM) | MIC Escherichia coli (GC 4559) (Escherichia coli; strain GC 4559): 32 µg/mL (≈ 20.6 µM) | MIC Escherichia coli (GC 4560) (Escherichia coli; strain GC 4560): 8 µg/mL (≈ 5.16 µM) | MIC Coagulase Negative Staphylococcus (GC 4547) (Staphylococcus sp.): 8 µg/mL (≈ 5.16 µM) | MIC Coagulase Negative Staphylococcus (GC 4548) (Staphylococcus sp.): 4 µg/mL (≈ 2.58 µM) | MIC Coagulase Negative Staphylococcus (GC 4549) (Staphylococcus sp.): 4 µg/mL (≈ 2.58 µM) | MIC Coagulase Negative Staphylococcus (GC 4551) (Staphylococcus sp.): 8 µg/mL (≈ 5.16 µM) | MIC Staphylococcus aureus (ATCC 29213) (Staphylococcus sp.): 8 µg/mL (≈ 5.16 µM) | MIC Staphylococcus aureus (GC 1131) (Staphylococcus sp.): 8 µg/mL (≈ 5.16 µM) | MIC Staphylococcus aureus (GC 3051) (Staphylococcus sp.): 8 µg/mL (≈ 5.16 µM) | MIC Staphylococcus aureus (GC 3053) (Staphylococcus sp.): 8 µg/mL (≈ 5.16 µM) | MIC Staphylococcus aureus (GC 4541) (Staphylococcus sp.): 16 µg/mL (≈ 10.3 µM) | MIC Staphylococcus aureus (GC 4542) (Staphylococcus sp.): 8 µg/mL (≈ 5.16 µM) | MIC Staphylococcus aureus (GC 4544) (Staphylococcus sp.): 16 µg/mL (≈ 10.3 µM) | MIC Staphylococcus aureus (GC 4545) (Staphylococcus sp.): 8 µg/mL (≈ 5.16 µM) | MIC Staphylococcus aureus-SMITH (GC 4543) (Staphylococcus sp.): 8 µg/mL (≈ 5.16 µM) | MIC Coagulase Negative Staphylococcus (GC 4547) (Staphylococcus sp.; strain GC 4547): 8 µg/mL (≈ 5.16 µM) | MIC Coagulase Negative Staphylococcus (GC 4548) (Staphylococcus sp.; strain GC 4548): 4 µg/mL (≈ 2.58 µM) | MIC Coagulase Negative Staphylococcus (GC 4549) (Staphylococcus sp.; strain GC 4549): 4 µg/mL (≈ 2.58 µM) | MIC Coagulase Negative Staphylococcus (GC 4551) (Staphylococcus sp.; strain GC 4551): 8 µg/mL (≈ 5.16 µM) | MIC Staphylococcus aureus-SMITH (GC 4543) (Staphylococcus sp.; strain SMITH GC 4543): 8 µg/mL (≈ 5.16 µM) | MIC Staphylococcus aureus (ATCC 29213) (Staphylococcus sp.; strain ATCC 29213): 8 µg/mL (≈ 5.16 µM) | MIC Staphylococcus aureus (GC 1131) (Staphylococcus sp.; strain GC 1131): 8 µg/mL (≈ 5.16 µM) | MIC Staphylococcus aureus (GC 3051) (Staphylococcus sp.; strain GC 3051): 8 µg/mL (≈ 5.16 µM) | MIC Staphylococcus aureus (GC 3053) (Staphylococcus sp.; strain GC 3053): 8 µg/mL (≈ 5.16 µM) | MIC Staphylococcus aureus (GC 4541) (Staphylococcus sp.; strain GC 4541): 16 µg/mL (≈ 10.3 µM) | MIC Staphylococcus aureus (GC 4542) (Staphylococcus sp.; strain GC 4542): 8 µg/mL (≈ 5.16 µM) | MIC Staphylococcus aureus (GC 4544) (Staphylococcus sp.; strain GC 4544): 16 µg/mL (≈ 10.3 µM) | MIC Staphylococcus aureus (GC 4545) (Staphylococcus sp.; strain GC 4545): 8 µg/mL (≈ 5.16 µM) | MIC Streptococcus agalactiae (GC 4564) (Streptococcus sp.; Streptococcus agalactiae (GC 4564)): 0.5 µg/mL (≈ 0.322 µM) | MIC Streptococcus pneumoniae (ATCC 6301) (Streptococcus sp.; Streptococcus pneumoniae (ATCC 6301)): 0.5 µg/mL (≈ 0.322 µM) | MIC Streptococcus pneumoniae (GC 1894) (Streptococcus sp.; Streptococcus pneumoniae (GC 1894)): <0.12 µg/mL | MIC Streptococcus pneumoniae (GC 4565) (Streptococcus sp.; Streptococcus pneumoniae (GC 4565)): 0.5 µg/mL (≈ 0.322 µM) | MIC Streptococcus pyogenes (GC 4563) (Streptococcus sp.; Streptococcus pyogenes (GC 4563)): 0.5 µg/mL (≈ 0.322 µM) | MIC Streptococcus pneumoniae (ATCC 6301) (Streptococcus sp.; strain ATCC 6301): 0.5 µg/mL (≈ 0.322 µM) | MIC Streptococcus pneumoniae (GC 1894) (Streptococcus sp.; strain GC 1894): <0.12 µg/mL | MIC Streptococcus pyogenes (GC 4563) (Streptococcus sp.; strain GC 4563): 0.5 µg/mL (≈ 0.322 µM) | MIC Streptococcus agalactiae (GC 4564) (Streptococcus sp.; strain GC 4564): 0.5 µg/mL (≈ 0.322 µM) | MIC Streptococcus pneumoniae (GC 4565) (Streptococcus sp.; strain GC 4565): 0.5 µg/mL (≈ 0.322 µM)
SMILES: N=C1NCC(C(O)C2NC(=O)C(Cc3ccc(OC4OC(CO)C(OC5OC6COC7(OC6C6OC8(OC56)C5CC6CC(C5)CC8C6)C5CC6CC(C5)CC7C6)C(O)C4O)cc3)NC(=O)C(CC3CCCCC3)NC(=O)CNC(=O)C(CO)NC(=O)C(C(O)C3CNC(=N)N3C3OC(CO)C(O)C(O)C3O)NC2=O)N1 (centres unmarked) [Example 106b, Cyclo[3-cyclohexylalanyl-O-[4-O-[2,3:4,6-di-O-(2-adamantylidene)hexopyranosyl]hexopyranosyl]tyrosyl-3-(2-iminoimidazolidin-4-yl)seryl-3-(3-hexopyranosyl-2-iminoimidazolidin-4-yl)-serylserylglycyl]]
MIC Staphylococcus haemolyticus (GC 4546) (Staphylococcus sp.): 4 µg/mL (≈ 2.58 µM) | MIC Staphylococcus haemolyticus (GC 4546) (Staphylococcus sp.; strain GC 4546): 4 µg/mL (≈ 2.58 µM)

Reference: patent US6914045B2, “Glycopeptide antibiotics” (Wyeth Holdings Corporation, priority 2001, dated 2005)
